Results: ChEMBL document CHEMBL2385071, “Synthesis and biological investigation of coumarin piperazine (piperidine) derivatives as potential multireceptor atypical antipsychotics” (J Med Chem, 2013)

Assays:
D(3) dopamine receptor = D(3) dopamine receptor (Rattus norvegicus, UniProt P19020); assay: biochemical
[1] = target: Voltage-gated inwardly rectifying potassium channel KCNH2 (Homo sapiens, UniProt Q12809)
Description: Inhibition of human ERG expressed in HEK293 cells by electrophysiology assay

[2] = target: 5-hydroxytryptamine receptor 2A (Rattus norvegicus, UniProt P14842); assay: Displacement of [3H]ketanserin from 5HT2A receptor in rat cerebral cortex after 15 mins by liquid scintillation counting analysis; assay type: tissue-based
Chain of 5-hydroxytryptamine receptor 2A (P14842 whole entry): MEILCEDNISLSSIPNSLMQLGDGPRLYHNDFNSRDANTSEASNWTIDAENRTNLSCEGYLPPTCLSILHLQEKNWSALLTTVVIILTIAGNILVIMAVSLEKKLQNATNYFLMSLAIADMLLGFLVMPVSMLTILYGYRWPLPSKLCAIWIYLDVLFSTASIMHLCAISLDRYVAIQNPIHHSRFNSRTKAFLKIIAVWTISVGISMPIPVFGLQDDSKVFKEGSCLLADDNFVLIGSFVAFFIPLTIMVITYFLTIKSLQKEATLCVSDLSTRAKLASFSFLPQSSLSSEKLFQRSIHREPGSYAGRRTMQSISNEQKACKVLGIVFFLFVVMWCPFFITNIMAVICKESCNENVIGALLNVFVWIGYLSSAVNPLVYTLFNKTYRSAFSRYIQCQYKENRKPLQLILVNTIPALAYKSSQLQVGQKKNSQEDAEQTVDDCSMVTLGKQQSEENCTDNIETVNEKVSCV

Histamine H1 receptor = Histamine H1 receptor (Cavia porcellus, UniProt P31389); assay: Displacement of [3H]mepyramine from histamine H1 receptor in guinea pig cerebellum after 60 mins by liquid scintillation counting analysis
Chain of Histamine H1 receptor (P31389 whole entry): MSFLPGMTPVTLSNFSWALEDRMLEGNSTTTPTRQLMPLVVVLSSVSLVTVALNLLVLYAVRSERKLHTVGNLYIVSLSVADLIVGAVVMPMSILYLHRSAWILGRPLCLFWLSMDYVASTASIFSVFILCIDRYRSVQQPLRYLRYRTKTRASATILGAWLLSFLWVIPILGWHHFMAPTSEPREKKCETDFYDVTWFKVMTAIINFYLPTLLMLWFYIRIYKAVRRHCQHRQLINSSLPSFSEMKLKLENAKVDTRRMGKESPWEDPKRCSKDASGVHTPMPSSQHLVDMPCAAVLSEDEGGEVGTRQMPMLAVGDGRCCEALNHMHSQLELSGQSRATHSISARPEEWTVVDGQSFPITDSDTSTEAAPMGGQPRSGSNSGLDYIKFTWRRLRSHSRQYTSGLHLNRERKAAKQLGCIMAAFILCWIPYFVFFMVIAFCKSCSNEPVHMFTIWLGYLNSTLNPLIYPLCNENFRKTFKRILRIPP

[3] = target: T1, Adrenergic receptor alpha-1 (Rattus norvegicus, UniProt P15823+P23944+P43140)
T1 sequence (P15823 whole entry): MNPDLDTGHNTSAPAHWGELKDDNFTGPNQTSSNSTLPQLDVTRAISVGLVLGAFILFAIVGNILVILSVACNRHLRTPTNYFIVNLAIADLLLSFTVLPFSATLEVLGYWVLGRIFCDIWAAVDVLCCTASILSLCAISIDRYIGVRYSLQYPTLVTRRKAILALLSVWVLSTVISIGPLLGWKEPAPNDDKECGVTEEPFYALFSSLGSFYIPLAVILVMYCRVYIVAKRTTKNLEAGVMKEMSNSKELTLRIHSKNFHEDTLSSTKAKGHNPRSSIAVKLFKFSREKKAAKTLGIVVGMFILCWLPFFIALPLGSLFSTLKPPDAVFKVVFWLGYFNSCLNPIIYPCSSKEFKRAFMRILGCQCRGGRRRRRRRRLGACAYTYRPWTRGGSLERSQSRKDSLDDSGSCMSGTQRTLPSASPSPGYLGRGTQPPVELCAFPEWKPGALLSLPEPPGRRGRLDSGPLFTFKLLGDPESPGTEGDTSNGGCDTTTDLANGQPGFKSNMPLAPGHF
T1 sequence (P23944 whole entry): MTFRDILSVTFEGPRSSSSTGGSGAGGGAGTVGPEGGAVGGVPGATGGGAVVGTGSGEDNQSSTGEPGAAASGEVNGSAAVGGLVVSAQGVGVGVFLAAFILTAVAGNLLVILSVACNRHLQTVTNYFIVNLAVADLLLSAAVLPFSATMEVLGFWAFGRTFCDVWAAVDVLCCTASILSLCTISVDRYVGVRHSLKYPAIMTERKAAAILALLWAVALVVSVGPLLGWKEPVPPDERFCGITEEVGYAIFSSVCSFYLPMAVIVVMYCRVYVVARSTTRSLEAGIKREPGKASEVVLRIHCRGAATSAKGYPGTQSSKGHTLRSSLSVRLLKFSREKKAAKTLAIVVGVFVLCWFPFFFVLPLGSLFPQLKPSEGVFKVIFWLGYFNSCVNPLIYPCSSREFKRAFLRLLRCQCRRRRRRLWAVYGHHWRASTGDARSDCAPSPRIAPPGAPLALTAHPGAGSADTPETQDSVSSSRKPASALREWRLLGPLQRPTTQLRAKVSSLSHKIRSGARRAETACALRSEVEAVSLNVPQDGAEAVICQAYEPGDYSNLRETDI
T1 sequence (P43140 whole entry): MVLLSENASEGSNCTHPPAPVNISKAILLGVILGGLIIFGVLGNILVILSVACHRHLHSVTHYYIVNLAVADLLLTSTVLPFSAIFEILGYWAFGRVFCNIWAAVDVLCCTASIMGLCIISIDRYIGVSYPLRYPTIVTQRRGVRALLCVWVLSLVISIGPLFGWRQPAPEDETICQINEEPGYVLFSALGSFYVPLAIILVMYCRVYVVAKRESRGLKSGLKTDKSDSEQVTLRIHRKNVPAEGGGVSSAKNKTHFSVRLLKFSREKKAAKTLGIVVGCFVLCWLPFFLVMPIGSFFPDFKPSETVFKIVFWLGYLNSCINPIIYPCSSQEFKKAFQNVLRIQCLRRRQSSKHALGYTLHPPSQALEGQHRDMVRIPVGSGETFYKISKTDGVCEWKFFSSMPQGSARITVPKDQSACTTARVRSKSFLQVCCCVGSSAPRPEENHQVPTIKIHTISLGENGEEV
Description: Displacement of [3H]prazosin from alpha-1 adrenergic receptor in rat cerebral cortex after 60 mins by liquid scintillation counting analysis

[4] = Acute toxicity in mouse assessed as mortality after 24 hrs; assay type: organism-based; settings: in vivo
[5] = AUC (0 to infinity) in rat at 12 mg/kg, po by HPLC-MS analysis; assay type: ADME, organism-based; design: time infinity, dose 12 mg/kg, route oral; settings: plasma
[6] = AUC (0 to 12 hrs) in rat at 5 mg/kg, iv by HPLC-MS analysis; assay type: ADME, organism-based; design: time < 12 hr, dose 5 mg/kg, route intravenous; settings: plasma
[7] = target: T2, 5-hydroxytryptamine receptor 1A (Homo sapiens, UniProt P08908)
T2 sequence (P08908 whole entry): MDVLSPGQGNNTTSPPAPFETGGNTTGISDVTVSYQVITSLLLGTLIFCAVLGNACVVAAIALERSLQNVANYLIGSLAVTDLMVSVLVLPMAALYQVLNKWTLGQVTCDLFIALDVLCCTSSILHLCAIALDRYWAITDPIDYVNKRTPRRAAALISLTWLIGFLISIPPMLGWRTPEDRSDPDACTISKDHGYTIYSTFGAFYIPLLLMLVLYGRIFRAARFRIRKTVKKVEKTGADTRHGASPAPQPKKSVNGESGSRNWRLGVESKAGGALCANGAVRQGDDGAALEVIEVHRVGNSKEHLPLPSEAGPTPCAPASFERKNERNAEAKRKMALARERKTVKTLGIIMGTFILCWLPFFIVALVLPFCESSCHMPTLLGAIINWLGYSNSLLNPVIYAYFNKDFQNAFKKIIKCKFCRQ
Description: Antagonist activity at 5HT1A receptor (unknown origin) expressed in CHOK1 cells coexpressing Galpha15 assessed as inhibition of agonist-induced response incubated for 60 mins in incubator followed by 15 mins at room temperature by FLIPR assay

in vivo [8] = settings: mouse, po
Mus musculus [9] = assay: Toxicity in po dosed mouse assessed as induction of catalepsy; assay type: organism-based; settings: in vivo
in vivo [10] = settings: mouse, po; remark: listed apart in the source
Description: Therapeutic Index, ratio of ED50 for catalepsy in mouse to ED50 for antipsychotic activity in po dosed mouse assessed as reduction in apomorphine-induced climbing behavior

Mus musculus [11] = species: Mus musculus; assay: animal or person; settings: po
Rattus norvegicus [12] = assay: Antipsychotic activity in po dosed rat assessed as reduction in conditioned avoidance response after 60 mins; assay type: functional
Rattus norvegicus [13] = assay: Toxicity in rat assessed as QT interval prolongation/cardiac liability at 5 to 60 mg/kg, po by electrophysiology assay; assay type: organism-based; design: dose 5-60 mg/kg, route oral; settings: in vivo
D(2) dopamine receptor [14] = target: T3, D(2) dopamine receptor (Homo sapiens, UniProt P14416); assay: Antagonist activity at dopamine D2 receptor (unknown origin) expressed in CHOK1 cells coexpressing Galpha15 assessed as inhibition of agonist-induced response at 10 uM incubated for 60 mins in incubator followed by 15 mins at room temperature by FLIPR assay relative to control; assay type: cell-based; settings: CHO-K1
T3 sequence (P14416 whole entry): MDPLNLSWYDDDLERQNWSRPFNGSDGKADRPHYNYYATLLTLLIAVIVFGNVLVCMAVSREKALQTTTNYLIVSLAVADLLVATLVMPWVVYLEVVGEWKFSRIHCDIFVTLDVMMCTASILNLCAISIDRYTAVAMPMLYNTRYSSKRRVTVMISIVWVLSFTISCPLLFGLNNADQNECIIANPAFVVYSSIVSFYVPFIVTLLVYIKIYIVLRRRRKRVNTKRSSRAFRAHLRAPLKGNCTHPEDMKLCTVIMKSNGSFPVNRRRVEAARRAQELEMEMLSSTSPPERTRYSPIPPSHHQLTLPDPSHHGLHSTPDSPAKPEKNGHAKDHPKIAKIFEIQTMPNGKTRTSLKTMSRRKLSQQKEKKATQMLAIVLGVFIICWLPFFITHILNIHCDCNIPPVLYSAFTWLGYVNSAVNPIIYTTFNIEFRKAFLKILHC

Mus musculus [15] = assay: Toxicity in mouse assessed as weight gain at 0.3 to 2.7 mg/kg, po for 28 days; assay type: organism-based; design: dose 0.3-2.7 mg/kg, route oral; settings: in vivo, 672 h
D(2) dopamine receptor [16] = target: T3, D(2) dopamine receptor; assay: Agonist activity at dopamine D2 receptor (unknown origin) expressed in CHOK1 cells coexpressing Galpha15 at 10 uM by FLIPR assay relative to control; assay type: cell-based; settings: CHO-K1
[17] = AUC (0 to 12 hrs) in rat at 12 mg/kg, po by HPLC-MS analysis; assay type: ADME, organism-based; design: time < 12 hr, dose 12 mg/kg, route oral; settings: plasma

Chain of D(3) dopamine receptor (P19020 whole entry): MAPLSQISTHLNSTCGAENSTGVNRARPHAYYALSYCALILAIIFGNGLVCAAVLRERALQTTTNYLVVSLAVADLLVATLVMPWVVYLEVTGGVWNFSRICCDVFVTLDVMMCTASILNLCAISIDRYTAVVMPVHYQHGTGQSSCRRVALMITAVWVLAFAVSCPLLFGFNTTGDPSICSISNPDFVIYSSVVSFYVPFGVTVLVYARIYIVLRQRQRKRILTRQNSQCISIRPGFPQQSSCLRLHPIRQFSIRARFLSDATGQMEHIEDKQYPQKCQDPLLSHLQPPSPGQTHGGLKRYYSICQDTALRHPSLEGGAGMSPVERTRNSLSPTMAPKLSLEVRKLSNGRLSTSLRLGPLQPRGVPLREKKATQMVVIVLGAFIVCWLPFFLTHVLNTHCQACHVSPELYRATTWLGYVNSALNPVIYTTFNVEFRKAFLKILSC
Chain of Voltage-gated inwardly rectifying potassium channel KCNH2 (Q12809 whole entry): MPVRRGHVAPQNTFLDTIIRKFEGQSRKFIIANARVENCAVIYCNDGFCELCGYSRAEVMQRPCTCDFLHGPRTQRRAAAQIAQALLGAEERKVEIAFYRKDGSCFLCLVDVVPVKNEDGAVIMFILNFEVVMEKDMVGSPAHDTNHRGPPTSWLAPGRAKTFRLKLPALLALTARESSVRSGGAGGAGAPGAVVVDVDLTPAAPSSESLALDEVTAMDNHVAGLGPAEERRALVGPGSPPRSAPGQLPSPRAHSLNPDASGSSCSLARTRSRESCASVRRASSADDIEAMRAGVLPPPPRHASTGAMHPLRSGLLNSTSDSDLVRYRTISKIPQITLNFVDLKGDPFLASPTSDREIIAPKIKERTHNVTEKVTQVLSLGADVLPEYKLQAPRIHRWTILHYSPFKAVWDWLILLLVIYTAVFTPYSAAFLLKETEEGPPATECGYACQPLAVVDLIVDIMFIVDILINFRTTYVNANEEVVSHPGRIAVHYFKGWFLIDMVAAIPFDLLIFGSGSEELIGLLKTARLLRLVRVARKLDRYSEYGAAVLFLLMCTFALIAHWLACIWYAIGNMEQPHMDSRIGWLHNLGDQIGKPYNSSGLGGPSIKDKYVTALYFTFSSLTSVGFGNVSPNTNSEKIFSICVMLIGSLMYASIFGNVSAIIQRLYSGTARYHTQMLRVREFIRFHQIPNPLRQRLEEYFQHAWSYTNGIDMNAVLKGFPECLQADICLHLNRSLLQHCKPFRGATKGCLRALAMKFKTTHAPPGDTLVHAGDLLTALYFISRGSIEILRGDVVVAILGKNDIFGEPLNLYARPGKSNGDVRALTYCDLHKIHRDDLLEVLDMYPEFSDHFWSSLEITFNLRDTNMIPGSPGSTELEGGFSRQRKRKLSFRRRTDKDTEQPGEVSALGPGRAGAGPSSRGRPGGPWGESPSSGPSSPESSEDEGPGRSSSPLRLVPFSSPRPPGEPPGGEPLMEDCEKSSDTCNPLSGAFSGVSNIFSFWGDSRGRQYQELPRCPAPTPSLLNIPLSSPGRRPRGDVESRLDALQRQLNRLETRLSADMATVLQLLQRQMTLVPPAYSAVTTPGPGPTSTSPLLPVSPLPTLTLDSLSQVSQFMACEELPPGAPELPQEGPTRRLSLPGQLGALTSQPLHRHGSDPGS

Ki (D(3) dopamine receptor) | Ki [2] | Ki (Histamine H1 receptor) | Ki [3] | SMILES | IC50 [1] | LD50 at 24 h [4] | AUC(0-inf) [5] | AUC(0-t) at 12 h [6] | IC50 [7] | selectivity ratio (in vivo [8]) | ED50 (Mus musculus [9]) | selectivity ratio (in vivo [10]) | ED50 (Mus musculus [11]) | Activity (Rattus norvegicus [12]) | ED50 (Rattus norvegicus [12]; 1 h) | Activity (Rattus norvegicus [13]) | inhibition (D(2) dopamine receptor [14]) | Activity (Mus musculus [15]) | Activity (D(2) dopamine receptor [16]) | AUC(0-t) at 12 h [17]
71.3 nM | 8.4 nM | 19.6 nM | 15.8 nM | Cc1cc(=O)oc2cc(OCCCCN3CCC(c4noc5cc(F)ccc45)CC3)ccc12 | 159 nM |  |  |  |  |  |  |  |  |  |  |  |  |  |  | 
72.7 nM | 9.2 nM | 38.1 nM | > 10000 nM | O=c1cc(-c2ccccc2)c2ccc(OCCCCN3CCC(c4noc5cc(F)ccc45)CC3)cc2o1 |  |  |  |  |  |  |  |  |  |  |  |  |  |  |  | 

Continued, molecule first:

SMILES | Ki (D(3) dopamine receptor) | Ki [2] | Ki (Histamine H1 receptor) | Ki [3] | IC50 [1] | LD50 at 24 h [4] | AUC(0-inf) [5] | AUC(0-t) at 12 h [6] | IC50 [7] | selectivity ratio (in vivo [8]) | ED50 (Mus musculus [9]) | selectivity ratio (in vivo [10]) | ED50 (Mus musculus [11]) | Activity (Rattus norvegicus [12]) | ED50 (Rattus norvegicus [12]; 1 h) | Activity (Rattus norvegicus [13]) | inhibition (D(2) dopamine receptor [14]) | Activity (Mus musculus [15]) | Activity (D(2) dopamine receptor [16]) | AUC(0-t) at 12 h [17]
Cc1c(C)c2ccc(OCCCCN3CCC(c4noc5cc(F)ccc45)CC3)cc2oc1=O | 30.6 nM | 0.3 nM | 550 nM | 139.2 nM | 195 nM |  |  |  |  |  |  |  |  |  |  |  |  |  |  | 
COc1ccccc1N1CCN(CCCCOc2ccc3c(C)cc(=O)oc3c2)CC1 | 4.8 nM | 8 nM | > 10000 nM | 6.1 nM | 31 nM |  |  |  |  |  |  |  |  |  |  |  |  |  |  | 
Cc1cc(=O)oc2c(C)c(OCCCCN3CCC(c4noc5cc(F)ccc45)CC3)ccc12 | 13.6 nM | 0.9 nM | 21.3 nM | 121.2 nM | 226 nM |  |  |  |  |  |  |  |  |  |  |  |  |  |  | 
Cc1cc(=O)oc2c(Cl)c(OCCCCN3CCC(c4noc5cc(F)ccc45)CC3)ccc12 | 4.3 nM | 0.3 nM | 1130 nM | 2569.2 nM | 1590 nM | > 2000 mg/kg | 703 ng·h/mL | 822 ng·h/mL | 11.8 nM | 221 | 70.85 mg/kg | 215 | 0.32 mg/kg | Dose-dependent effect | 6.5 mg/kg | Non-toxic | 101% | Non-toxic | 2% | 644 ng·h/mL
